Measurements reported in patent publication US20030139609A1, “Aziridinyl quinone antitumor agents based on indoles and cyclopent[b]indoles” (priority 2001, published 2003).

Experiments:
[1] = target: human DT-diaphorase (from the non-small cell lung NCI-H460 cell line) (Homo sapiens, UniProt P15559); assay: DT-diaphorase substrate kinetics (recombinant enzyme, anaerobic, Lineweaver-Burke); type: biochemical
Description: Listed in Tables 1-4 are the human DT-diaphorase kinetic parameters for Series 1-9, along with the DNA alkylation percentages. These parameters include the apparent dissociation constant KM, the apparent maximal velocity VMAX, and the substrate specificity, VMAX/KM. The designation “apparent” refers to the present of productive and nonproductive constants in KM and VMAX. {Fersht, A. R., The Hydrogen Bond in Molecular Recognition Trends, Biochem. Sci., 1987, 12, 301-304} These constants cancel in the ratio VMAX/KM, which is the best parameter to compare substrates. Human DT-diaphorase (from the non-small cell lung NCI-H460 cell line) {Beall, H. D., Mulcahy, R. T., Siegel, D., Traver, R D., Gibson, N. W., and Ross, D., Metabolism of Bioreductive Antitumor Compounds by Purified Rat and Human DT-Diaphorase Cancer Res., 1994, 54, 3196-3201 } was used to obtain these kinetic parameters. This enzyme is the same as that present in other human tissues, cancerous or otherwise.
Kinetics Studies using Recombinant DT-diaphorase. Kinetics studies were carried out in 0.05 M pH 7.4 Tris buffer under anaerobic conditions, employing Thunberg cuvettes. […] To calculate Vmax, the value of □□ must be obtained. □□ was calculated from the initial and final absorbances for complete quinone reduction; all values are between 8000 to 9000 M^−1 cm^−1. […]

600 bp calf thymus DNA = assay: DNA reductive alkylation by catalytically reduced aziridinyl quinones; type: biochemical
Method: DNA Alkylation Screening of Series 1-9. The extent of DNA reductive alkylation was determined by catalytic reduction of the aziridinyl quinones in the presence of 600 bp calf thymus DNA. Oxidative workup afforded DNA colored blue as a result of the aminoquinone chromophore. […] The anaerobic conditions employed for DNA reductive alkylation assays is not meant to mimic the environment of tumor cells. These conditions do permit an accurate assessment of the structural requirements for DNA alkylation by the hydroquinone species. To be sure, agents incapable of akylating DNA under these ideal conditions will not do so in the typical cellular environment.
Alkylation of DNA by Reduced Indoloquinones. To a mixture of 1-2 mg of sonicated (600 bp) calf thymus DNA in 2.0 mL of 0.05 M of pH 7.4 tris buffer and 2 mg of Pd on carbon was added a five-to-one base pair equivalent amount of the indoloquinone dissolved in 0.5 mL of dimethylsulfoxide. The resulting solution was degassed under argon for 30 min., after which the mixture was purged with H2 for 10 min. The solution was then purged with argon for 10 min. and placed in a 30° C. bath for 24 h. The reaction was opened to the air and the catalyst was removed with a Millex-PF […] syringe filter. The filtrate was adjusted to 0.3 M acetate with a 3 M stock solution of pH 5.1 acetate and then diluted with two volumes of ethanol. The mixture was chilled at −20° C. for 12 h and the DNA pellet collected by centrifuging at 12,000 g for 20 min. The pellet was redissolved in water and then precipitated and centrifuged again. The resulting blue or red pellet was suspended in ethanol, centrifuged, and dried. The dried pellet was weighed and dissolved in 1 mL of double distilled water resulting in a clear colored solution with […]max˜550 nm, □˜750 M^−1 cm^−1. This is the chromophore of the aminoquinone resulting from nucleophile-mediated opening of the aziridine ring. Model 2′-chloroethyl aminoquinones for extinction coefficient determination were prepared by treatment of the indoloquinone with HCl. {Skibo, E. B. and Xing, C., Chemistry and DNA Alkylation Reactions of Aziridinyl Quinones: Development of an Efficient Alkylating Agent of the Phosphate Backbone, Biochemistry, 1998, 37, 15199-15213}.

[2] = system: NCI-H460 non-small-lung cancer cell line; assay: NCI In Vitro Cell Line Screening, NSC H460 cell line; type: cell-based
Description: Cytotoxic and Cytostatic Screening of Series 1-9.

[3] = system: National Cancer Institute 60-cell line; assay: NCI 60-cell line in vitro screen (average cytotoxicity and cancer specificity)
Method: Cytotoxic and Cytostatic Screening of Series 1-9. […] The cytostatic parameters include GI50 and TGI, which are the concentrations of drug required for 50% growth inhibition and total growth inhibition, respectively. The cytotoxic parameter is the LC50, which is the concentration required for 50% cell kill.
4. […] Cancer specificity is measured from the ± value under the “Average Log LC50 60-Cell Line” heading of Table 5. A ± value greater than 2 indicates a greater than 100-fold higher/lower cytotoxicity in some histological cancer types compared to the mean cytotoxicity.
The DT-diaphorase levels in the National Cancer Institute 60-cell line in vitro screen have been determined and correlated with the cytotoxicity of antitumor agents activated by 2-electron reduction. {Fitzsimmons, S. A., Workman, P., Grever, M., Paull, K., Camalier, R., and Lewis, A. D., Reductase Enzyme Expression Across the National Cancer Institute Tumor Cell Line Panel: Correlation with Sensitivity To Mitomycin C and EO9, J. Natl. Cancer Inst., 1996, 88, 259-69}. Sensitive cancers usually include NSC lung and colon cancers (and to a lesser extent CNS, melanoma, and renal cancers) by virtue of their elevated DT-diaphorase levels.

Chain of human DT-diaphorase (from the non-small cell lung NCI-H460 cell line) (P15559 whole entry): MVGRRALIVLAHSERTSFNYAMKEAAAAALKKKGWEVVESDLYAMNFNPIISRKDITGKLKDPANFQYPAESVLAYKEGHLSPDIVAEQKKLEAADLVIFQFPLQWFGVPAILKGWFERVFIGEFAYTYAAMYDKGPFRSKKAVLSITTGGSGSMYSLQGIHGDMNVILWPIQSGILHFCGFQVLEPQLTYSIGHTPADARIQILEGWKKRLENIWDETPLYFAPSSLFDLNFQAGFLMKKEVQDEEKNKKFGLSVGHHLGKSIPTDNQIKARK

CCOC(=O)c1[nH]c2c(c1COC(C)=O)C(=O)C(N1CC1)=CC2=O [Compound 6d, 3-Acetoxymethyl-5-aziridinyl-2-ethoxycarbonylindole-4,7-dione]
DT-diaphorase specificity [1]: 0.0072 M⁻¹ s⁻¹ | % of DNA bases reductively activated (600 bp calf thymus DNA): 91.2% | DNA alkylation (in words) (600 bp calf thymus DNA): high DNA alkylation percentages | DNA alkylation percentage (600 bp calf thymus DNA; catalytic reduction, anaerobic, pH 7.4 tris buffer, 30° C., 24 h, absorbance at 550 nm): 91.2% | GI50 ([2]; Homo sapiens, NCI-H460, concentration for 50% growth inhibition, read-out: Log GI50 NSC H460 (converted)): 0.0372 µM | CC50 ([2]; Homo sapiens, NCI-H460, read-out: Log LC50 NSC H460, concentration for 50% cell kill (converted)): 0.603 µM | Log TGI NSC H460 ([2]; concentration for total growth inhibition): −6.77 | ± value of Average Log LC50 60-Cell Line [3]: ~1 | Average Log LC50 60-Cell Line ([3]; mean over 60 cell lines, ± value measures cancer specificity): −5.62 ± 1.05
